Read-outs that look alike come from different tables or passages of the source.
Columns and labels:
HCMV polymerase = biological target: T1, HCMV polymerase (Human cytomegalovirus, UniProt P08546); experiment: HCMV polymerase scintillation proximity assay (SPA); assay type: biochemical
T1 construct: made in house; host or cells: recombinant baculovirus-infected SF-9 cells
Experimental: The HCMV polymerase assay is performed using a scintillation proximity assay (SPA) as described in several references, such as N. D. Cook, et al., Pharmaceutical Manufacturing International, pages 49-53 (1992); K Takeuchi, Laboratory Practice, September issue (1992); U.S. Pat. No. 4,568,649 (1986); which are incorporated by reference herein. Reactions are performed in 96-well plates. The assay is conducted in 100 μl volume with 5.4 mM HEPES (pH 7.5), 11.7 mM KCl, 4.5 mM MgCl2, 0.36 mg/ml BSA, and 90 nM ^3H-dTTP. Assays are run with and without CHAPS, (3-[(3-Cholamidopropyl)-dimethylammonio]-1-propane-sulfonate) at a final concentration of 2 mM. HCMV polymerase is diluted in enzyme dilution buffer containing 50% glycerol, 250 mM NaCl, 10 mM HEPES (pH 7.5), 100 μg/ml BSA, and 0.01% sodium azide. The HCMV polymerase, which is expressed in, recombinant baculovirus-infected SF-9 cells and purified according to literature procedures, is added at 10% (or 10 μl) of the final reaction volume, i.e., 100 μl. Compounds are diluted in 50% DMSO and 10 μl are added to each well. Control wells contain an equivalent concentration of DMSO. Unless noted otherwise, reactions are initiated via the addition of 6 nM biotinylated poly(dA)-oligo(dT) template/primer to reaction mixtures containing the enzyme, substrate, and compounds of interest. Plates are incubated in a 25° C. or 37° C. H2O bath and terminated via the addition of 40 μl/reaction of 0.5 M EDTA (pH 8) per well. Reactions are terminated within the time-frame during which substrate incorporation is linear and varied depending upon the enzyme and conditions used, i.e., 30 min. for HCMV polymerase. Ten (10) 10 μL of streptavidin-SPA beads (20 mg/ml in PBS/10% glycerol) are added following termination of the reaction. Plates are incubated 10 min. at 37° C., then equilibrated to room temperature, and counted on a Packard Topcount. Linear regressions are performed and IC50's are calculated using computer software.
A modified version of the above HCMV polymerase assay is performed as described above, but with the following changes: Compounds are diluted in 100% DMSO until final dilution into assay buffer. In the previous assay, compounds are diluted in 50% DMSO. 4.5 mM Dithiothreitol (DTT) is added to the polymerase buffer.
All results are listed as Polymerase IC50 ([…]) values. In Table 1, the term “n.d.” refers to activity data not determined.

HSV polymerase = HSV polymerase (Human herpesvirus 1, UniProt P04293); experiment: HSV polymerase assay (Table 1); assay type: biochemical
Chain of HSV polymerase (P04293 whole entry): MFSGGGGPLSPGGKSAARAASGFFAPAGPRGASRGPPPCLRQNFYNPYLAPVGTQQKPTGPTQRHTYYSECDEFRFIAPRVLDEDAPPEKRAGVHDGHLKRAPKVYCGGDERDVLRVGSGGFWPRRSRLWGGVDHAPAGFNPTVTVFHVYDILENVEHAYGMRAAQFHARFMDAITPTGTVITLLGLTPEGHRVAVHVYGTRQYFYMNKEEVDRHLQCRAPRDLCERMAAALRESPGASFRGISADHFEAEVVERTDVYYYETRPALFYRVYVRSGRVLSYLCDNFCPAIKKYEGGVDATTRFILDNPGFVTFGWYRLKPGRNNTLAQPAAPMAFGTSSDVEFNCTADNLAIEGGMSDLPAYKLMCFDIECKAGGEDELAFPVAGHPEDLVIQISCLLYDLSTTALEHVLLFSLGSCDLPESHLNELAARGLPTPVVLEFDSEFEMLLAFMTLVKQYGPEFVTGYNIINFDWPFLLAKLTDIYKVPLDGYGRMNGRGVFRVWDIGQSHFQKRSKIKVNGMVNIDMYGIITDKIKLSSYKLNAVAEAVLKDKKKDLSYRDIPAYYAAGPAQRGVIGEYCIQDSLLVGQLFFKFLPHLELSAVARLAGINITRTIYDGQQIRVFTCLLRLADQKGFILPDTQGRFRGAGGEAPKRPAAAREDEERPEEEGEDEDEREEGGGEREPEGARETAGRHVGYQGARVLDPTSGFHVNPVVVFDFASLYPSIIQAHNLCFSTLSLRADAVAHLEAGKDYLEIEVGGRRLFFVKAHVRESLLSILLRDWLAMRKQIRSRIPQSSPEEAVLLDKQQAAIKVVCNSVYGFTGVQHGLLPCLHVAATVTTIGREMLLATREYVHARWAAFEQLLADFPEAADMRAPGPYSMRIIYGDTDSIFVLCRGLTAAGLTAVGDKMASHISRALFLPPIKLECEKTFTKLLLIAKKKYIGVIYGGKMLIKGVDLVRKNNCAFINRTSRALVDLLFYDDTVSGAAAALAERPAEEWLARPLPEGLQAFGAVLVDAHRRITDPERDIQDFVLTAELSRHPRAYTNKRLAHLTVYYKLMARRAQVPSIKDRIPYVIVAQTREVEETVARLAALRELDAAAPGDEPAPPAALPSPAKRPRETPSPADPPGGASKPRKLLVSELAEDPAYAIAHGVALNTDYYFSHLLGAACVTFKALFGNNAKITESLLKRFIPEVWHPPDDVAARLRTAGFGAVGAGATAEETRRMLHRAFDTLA

VZV polymerase = VZV polymerase (Varicella-zoster virus, UniProt P09252); experiment: VZV polymerase assay (Table 1); assay type: biochemical
Chain of VZV polymerase (P09252 whole entry): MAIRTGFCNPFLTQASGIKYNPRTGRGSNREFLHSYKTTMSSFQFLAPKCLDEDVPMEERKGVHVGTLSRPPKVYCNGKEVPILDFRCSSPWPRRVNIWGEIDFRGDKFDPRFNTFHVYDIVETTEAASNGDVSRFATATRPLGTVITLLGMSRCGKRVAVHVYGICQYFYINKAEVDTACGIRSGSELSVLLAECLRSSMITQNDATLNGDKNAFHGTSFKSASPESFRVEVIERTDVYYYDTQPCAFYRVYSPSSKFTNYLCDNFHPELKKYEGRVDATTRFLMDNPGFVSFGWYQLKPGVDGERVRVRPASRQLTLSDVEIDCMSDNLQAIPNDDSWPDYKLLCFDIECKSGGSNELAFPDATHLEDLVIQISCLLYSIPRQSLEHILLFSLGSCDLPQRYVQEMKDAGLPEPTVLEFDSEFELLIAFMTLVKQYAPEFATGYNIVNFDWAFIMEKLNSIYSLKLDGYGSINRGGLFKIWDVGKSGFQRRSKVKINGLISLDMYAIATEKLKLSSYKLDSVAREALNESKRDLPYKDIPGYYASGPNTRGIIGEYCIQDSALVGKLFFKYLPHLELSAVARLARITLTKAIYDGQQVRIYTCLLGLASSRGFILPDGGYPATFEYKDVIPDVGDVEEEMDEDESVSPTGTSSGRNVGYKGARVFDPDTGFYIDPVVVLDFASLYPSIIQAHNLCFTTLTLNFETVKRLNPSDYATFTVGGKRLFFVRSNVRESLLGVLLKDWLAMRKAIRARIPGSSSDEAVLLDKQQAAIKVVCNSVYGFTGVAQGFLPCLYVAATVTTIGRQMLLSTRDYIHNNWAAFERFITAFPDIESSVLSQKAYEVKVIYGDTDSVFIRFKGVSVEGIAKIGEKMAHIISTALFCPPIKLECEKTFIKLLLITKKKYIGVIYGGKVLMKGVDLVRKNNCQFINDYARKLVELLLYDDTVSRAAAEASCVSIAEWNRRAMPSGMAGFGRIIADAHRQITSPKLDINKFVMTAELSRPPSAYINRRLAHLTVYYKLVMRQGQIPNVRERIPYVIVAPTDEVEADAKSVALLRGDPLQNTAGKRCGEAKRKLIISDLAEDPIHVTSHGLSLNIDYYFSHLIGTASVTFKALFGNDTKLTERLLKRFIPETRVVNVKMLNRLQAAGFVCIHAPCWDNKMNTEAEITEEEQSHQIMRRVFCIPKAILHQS

[1] = HCMV polymerase, SPA, read-out: Polymerase IC50 HCMV

T1 sequence (P08546 whole entry): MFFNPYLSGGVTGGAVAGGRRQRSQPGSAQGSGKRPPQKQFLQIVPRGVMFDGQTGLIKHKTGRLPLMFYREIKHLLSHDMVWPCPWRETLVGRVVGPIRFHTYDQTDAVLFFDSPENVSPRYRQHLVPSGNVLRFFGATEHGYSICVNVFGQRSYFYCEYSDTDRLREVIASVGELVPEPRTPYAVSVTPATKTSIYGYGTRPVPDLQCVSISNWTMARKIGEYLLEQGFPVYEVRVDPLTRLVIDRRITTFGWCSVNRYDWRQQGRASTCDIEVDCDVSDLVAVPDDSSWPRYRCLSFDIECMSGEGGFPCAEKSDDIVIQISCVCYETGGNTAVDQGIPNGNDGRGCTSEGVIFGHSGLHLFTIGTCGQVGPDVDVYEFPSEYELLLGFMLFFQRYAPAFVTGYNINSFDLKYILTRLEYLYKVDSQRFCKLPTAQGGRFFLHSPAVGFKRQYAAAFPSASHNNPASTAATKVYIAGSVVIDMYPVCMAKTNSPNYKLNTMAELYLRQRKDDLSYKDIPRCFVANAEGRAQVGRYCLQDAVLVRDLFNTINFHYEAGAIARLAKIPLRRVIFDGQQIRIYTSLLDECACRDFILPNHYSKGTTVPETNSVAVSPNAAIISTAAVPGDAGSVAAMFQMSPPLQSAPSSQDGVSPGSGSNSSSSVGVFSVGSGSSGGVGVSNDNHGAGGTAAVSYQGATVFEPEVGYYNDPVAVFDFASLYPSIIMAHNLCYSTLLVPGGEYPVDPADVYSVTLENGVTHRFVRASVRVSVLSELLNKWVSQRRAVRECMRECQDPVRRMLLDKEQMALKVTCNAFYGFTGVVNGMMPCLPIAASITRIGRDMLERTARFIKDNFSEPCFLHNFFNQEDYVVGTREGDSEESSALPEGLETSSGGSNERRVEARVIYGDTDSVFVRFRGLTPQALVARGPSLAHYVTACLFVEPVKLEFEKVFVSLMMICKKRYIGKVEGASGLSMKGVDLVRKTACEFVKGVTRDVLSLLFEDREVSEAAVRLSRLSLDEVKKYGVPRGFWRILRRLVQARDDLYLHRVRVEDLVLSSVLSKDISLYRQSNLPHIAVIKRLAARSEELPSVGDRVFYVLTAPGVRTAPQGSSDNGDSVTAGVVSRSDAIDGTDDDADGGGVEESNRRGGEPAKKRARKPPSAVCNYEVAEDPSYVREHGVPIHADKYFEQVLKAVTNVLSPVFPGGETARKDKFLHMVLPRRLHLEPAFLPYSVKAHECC

## CN(Cc1cc2c(=O)c(C(=O)NCc3ccc(Cl)cc3)cn(C)c2s1)CC(O)c1cccnc1 (racemic) [Example 1, rac-N-(4-Chlorobenzyl)-2-(((2-hydroxy-2-pyridin-3-ylethyl)(methyl)amino)methyl)-7-methyl-4-oxo-4,7-dihydrothieno[2,3-b]pyridine-5-carboxamide]
HCMV polymerase; [1]
  IC50: 160 nM
HSV polymerase
  IC50: 580 nM
VZV polymerase
  IC50: 220 nM
other
  melting point: 160 to 162 °C

## CN(Cc1cc2c(=O)c(C(=O)NCc3ccc(Cl)cc3)cn(C)c2s1)CC(O)c1ccncc1 (racemic) [Example 3, rac-N-(4-Chlorobenzyl)-2-(((2-hydroxy-2-pyridin-4-ylethyl)(methyl)amino)methyl)-7-methyl-4-oxo-4,7-dihydrothieno[2,3-b]pyridine-5-carboxamide]
HCMV polymerase; [1]
  IC50: 200 nM
HSV polymerase
  IC50: 470 nM
VZV polymerase
  IC50: 220 nM
other
  melting point: 185 to 188 °C

## CN(Cc1cc2c(=O)c(C(=O)NCc3ccc(Cl)cc3)cn(C)c2s1)CC(O)c1ccccn1 (racemic) [Example 4, rac-N-(4-Chlorobenzyl)-2-(((2-hydroxy-2-pyridin-2-ylethyl)(methyl)amino)methyl)-7-methyl-4-oxo-4,7-dihydrothieno[2,3-b]pyridine-5-carboxamide]
HCMV polymerase; [1]
  IC50: 90 nM
HSV polymerase
  IC50: 100 nM
VZV polymerase
  IC50: 30 nM
other
  melting point: 145 to 147 °C

## Cc1cccc(C(O)CN(C)Cc2cc3c(=O)c(C(=O)NCc4ccc(Cl)cc4)cn(C)c3s2)n1 (racemic) [Example 6, rac-N-(4-Chlorobenzyl)-2-(((2-hydroxy-2-(6-methylpyridin-2-yl)ethyl)(methyl)amino)methyl)-7-methyl-4-oxo-4,7-dihydrothieno[2,3-b]pyridine-5-carboxamide]
HCMV polymerase; [1]
  IC50: 620 nM
other
  melting point: 158 to 162 °C

## CN(Cc1cc2c(=O)c(C(=O)NCc3ccc(Cl)cc3)cn(C)c2s1)CC(O)c1ccc2ccccc2n1 (racemic) [Example 7, rac-N-(4-Chlorobenzyl)-2-(((2-hydroxy-2-quinolin-2-ylethyl)(methyl)amino)methyl)-7-methyl-4-oxo-4,7-dihydrothieno[2,3-b]pyridine-5-carboxamide]
HCMV polymerase; [1]
  IC50: 70 nM
HSV polymerase
  IC50: 150 nM
VZV polymerase
  IC50: 40 nM
other
  melting point: 155 to 160 °C

## CN(Cc1cc2c(=O)c(C(=O)NCc3ccc(Cl)cc3)cn(C)c2s1)CC(O)c1ncccn1 (racemic) [Example 8, rac-N-(4-Chlorobenzyl)-2-(((2-hydroxy-2-pyrimidin-2-ylethyl)(methyl)amino)methyl)-7-methyl-4-oxo-4,7-dihydrothieno[2,3-b]pyridine-5-carboxamide]
HCMV polymerase; [1]
  IC50: 130 nM
HSV polymerase
  IC50: 150 nM
VZV polymerase
  IC50: 50 nM
other
  melting point: 181 °C

## CN(Cc1cc2c(=O)c(C(=O)NCc3ccc(Cl)cc3)cn(C)c2s1)CC(O)c1cnccn1 (racemic) [Example 10, rac-N-(4-Chlorobenzyl)-2-(((2-hydroxy-2-pyrazin-2-ylethyl)(methyl)amino)methyl)-7-methyl-4-oxo-4,7-dihydrothieno[2,3-b]pyridine-5-carboxamide]
HCMV polymerase; [1]
  IC50: 110 nM
HSV polymerase
  IC50: 100 nM
VZV polymerase
  IC50: 50 nM

## CCCn1cc(C(=O)NCc2ccc(Cl)cc2)c(=O)c2cc(CN(C)CC(O)c3ccccn3)sc21 (racemic) [Example 15, rac-N-(4-Chlorobenzyl)-7-propyl-2-(((2-hydroxy-2-pyridin-2-ylethyl)(methyl)amino)methyl)-4-oxo-4,7-dihydrothieno[2,3-b]pyridine-5-carboxamide]
HCMV polymerase; [1]
  IC50: 1070 nM

## CCCn1cc(C(=O)NCc2ccc(Cl)cc2)c(=O)c2cc(CN(C)CC(O)c3cnccn3)sc21 (racemic) [Example 16, rac-N-(4-Chlorobenzyl)-2-(((2-hydroxy-2-pyrazin-2-ylethyl)(methyl)amino)methyl)-4-oxo-7-propyl-4,7-dihydrothieno[2,3-b]pyridine-5-carboxamide]
HCMV polymerase; [1]
  IC50: 310 nM
HSV polymerase
  IC50: 1090 nM
VZV polymerase
  IC50: 210 nM

## CN(Cc1cc2c(=O)c(C(=O)NCc3ccc(Cl)cc3)cn(CCCO)c2s1)CC(O)c1ncccn1 (racemic) [Example 19, rac-N-(4-Chlorobenzyl)-7-(3-hydroxypropyl)-2-(((2-hydroxy-2-pyrimidin-2-ylethyl)(methyl)amino)methyl)-4-oxo-4,7-dihydrothieno[2,3-b]pyridine-5-carboxamide]
HCMV polymerase
  IC50: 1120 nM

## COCCn1cc(C(=O)NCc2ccc(Cl)cc2)c(=O)c2cc(CN(C)CC(O)c3cnccn3)sc21 (racemic) [Example 21, rac-N-(4-Chlorobenzyl)-2-(((2-hydroxy-2-pyrazin-2-ylethyl)(methyl)amino)methyl)-7-(2-methoxyethyl)-4-oxo-4,7-dihydrothieno[2,3-b]pyridine-5-carboxamide]
HCMV polymerase; [1]
  IC50: 1030 nM
other
  melting point: 122 to 123 °C

## CN(Cc1cc2c(=O)c(C(=O)NCc3ccc(Cl)cc3)cn(C)c2s1)C[C@@H](O)c1ncccn1 [Example 9]
HCMV polymerase; [1]
  IC50: 50 nM
HSV polymerase
  IC50: 130 nM
VZV polymerase
  IC50: 30 nM

## CN(Cc1cc2c(=O)c(C(=O)NCc3ccc(Cl)cc3)cn(C)c2s1)C[C@@H](O)c1cnccn1 [Example 11, N-(4-Chlorobenzyl)-2-((((2R)-2-hydroxy-2-pyrazin-2-ylethyl)(methyl)amino)methyl)-7-methyl-4-oxo-4,7-dihydrothieno[2,3-b]pyridine-5-carboxamide]
HCMV polymerase; [1]
  IC50: 40 nM
HSV polymerase
  IC50: 80 nM
VZV polymerase
  IC50: 20 nM

## CN(Cc1cc2c(=O)c(C(=O)NCc3ccc(Cl)cc3)cn(C)c2s1)CC(O)c1cccnn1 (centres unmarked) [Example 12]
HCMV polymerase; [1]
  IC50: 310 nM
HSV polymerase
  IC50: 840 nM
VZV polymerase
  IC50: 230 nM

## CN(Cc1cc2c(=O)c(C(=O)NCc3ccc(Cl)cc3)cn(CC(O)CO)c2s1)C[C@@H](O)c1ccccn1 (stereo partly drawn) [Example 17, N-(4-Chlorobenzyl)-7-(2,3-dihydroxypropyl)-2-((((2R)-2-hydroxy-2-pyridin-2-ylethyl)(methyl)amino)methyl)-4-oxo-4,7-dihydrothieno[2,3-b]pyridine-5-carboxamide]
HCMV polymerase; [1]
  IC50: 2190 nM

## CN(Cc1cc2c(=O)c(C(=O)NCc3ccc(Cl)cc3)cn(CCCO)c2s1)C[C@@H](O)c1ccccn1 [Example 18, N-(4-Chlorobenzyl)-7-(3-hydroxypropyl)-2-((((2R)-2-hydroxy-2-pyridin-2-ylethyl)(methyl)amino)methyl)-4-oxo-4,7-dihydrothieno[2,3-b]pyridine-5-carboxamide]
HCMV polymerase
  IC50: 1300 nM

## CN(Cc1cc2c(=O)c(C(=O)NCc3ccc(Cl)cc3)cn(CCO)c2s1)C[C@@H](O)c1ccccn1 [Example 20, N-(4-Chlorobenzyl)-7-(2-hydroxyethyl)-2-((((2R)-2-hydroxy-2-pyridin-2-ylethyl)(methyl)amino)methyl)-4-oxo-4,7-dihydrothieno[2,3-b]pyridine-5-carboxamide]
HCMV polymerase; [1]
  IC50: 1160 nM

## CN(Cc1cc2c(=O)c(C(=O)NCc3ccc(Cl)cc3)cn(CCOCCO)c2s1)C[C@@H](O)c1cnccn1 [Example 22]
HCMV polymerase; [1]
  IC50: 580 nM

## CN(Cc1cc2c(=O)c(C(=O)NCc3ccc(F)cc3)cn(C)c2s1)C[C@@H](O)c1ccccn1 [Example 23, N-(4-Fluorobenzyl)-2-((((2R)-2-hydroxy-2-pyridin-2-ylethyl)(methyl)amino)methyl)-7-methyl-4-oxo-4,7-dihydrothieno[2,3-b]pyridine-5-carboxamide]
HCMV polymerase; [1]
  IC50: 280 nM
HSV polymerase
  IC50: 490 nM
VZV polymerase
  IC50: 110 nM

## CN(Cc1cc2c(=O)c(C(=O)NCc3ccc(C#N)cc3)cn(C)c2s1)C[C@@H](O)c1ccccn1 [Example 24, N(4-Cyanobenzyl)-2-((((2R)-2-hydroxy-2-pyridin-2-ylethyl)(methyl)amino)methyl)-7-methyl-4-oxo-4,7-dihydrothieno[2,3-b]pyridine-5-carboxamide]
HCMV polymerase; [1]
  IC50: 230 nM
other
  melting point: 167 to 169 °C

## CN(Cc1cc2c(=O)c(C(=O)NCc3ccc(Br)cc3)cn(C)c2s1)C[C@@H](O)c1ccccn1 [Example 25, N(4-Bromobenzyl)-2-((((2R)-2-hydroxy-2-pyridin-2-ylethyl)(methyl)amino)methyl)-7-methyl-4-oxo-4,7-dihydrothieno[2,3-b]pyridine-5-carboxamide]
HCMV polymerase; [1]
  IC50: 150 nM
other
  melting point: 151 to 153 °C

## rac-N-(4-Chlorobenzyl)-7-ethyl-2-(((2-hydroxy-2-pyrimidin-2-ylethyl)(methylamino)methyl)-4-oxo-4,7-dihydrothieno[2,3-b]pyridine-5-carboxamide [Example 14]
HCMV polymerase; [1]
  IC50: 1200 nM
